Data on two compounds can be found in ChEMBL document CHEMBL1149857, “Novel azaphilones, kasanosins A and B, which are specific inhibitors of eukaryotic DNA polymerases beta and lambda from Talaromyces sp” (Bioorg Med Chem, 2008).

Assay [1] has as its target Telomerase reverse transcriptase (Homo sapiens) (UniProt O14746). The assay is described as follows: Inhibition of human telomerase at 100 uM relative to control.
The subject of the next assay is Oncorhynchus masou. The assay can be described thus: Inhibition of cherry salmon DNA polymerase delta at 100 uM.
Assay [2] addresses Polynucleotide kinase (Enterobacteria phage T4) (UniProt P06855). The assay can be described thus: Inhibition of T4 polynucleotide kinase at 100 uM relative to control. Particulars: Tequatrovirus T4.
The next assay concerns Brassica oleracea. The assay is described as follows: Inhibition of cauliflower DNA polymerase alpha at 100 uM.
Assay [3] has as its target Human immunodeficiency virus type 1 reverse transcriptase (Human immunodeficiency virus 1) (UniProt Q72547). The assay is described as follows: Inhibition of HIV1 reverse transcriptase at 100 uM relative to control.
For assay [4], the target named is Deoxyribonuclease-1 (Bos taurus) (UniProt P00639). The assay can be described thus: Inhibition of bovine deoxyribonuclease 1 at 100 uM relative to control.
A further assay relates to Tequatrovirus T4. The assay is described as follows: Inhibition of T4 DNA polymerase at 100 uM.
Assay [5] addresses DNA polymerase beta (Rattus norvegicus) (UniProt P06766). The assay is described as follows: Inhibition of rat DNA polymerase beta at 100 uM.
For the next assay, the system named is Escherichia phage T7. The assay can be described thus: Inhibition of T7 RNA polymerase […] at 100 uM relative to control.
The next assay concerns Thermus aquaticus. The assay can be described thus: Inhibition of Thermus aquaticus DNA polymerase at 100 uM.
The species named for the next assay is Bos taurus. The assay is described as follows: Inhibition of calf DNA polymerase alpha at 100 uM relative to control.
A further assay concerns Escherichia coli. The assay can be described thus: Inhibition of Escherichia coli DNA polymerase 1 Klenow fragment at 100 uM.
Assay [6] concerns the target DNA nucleotidylexotransferase (Bos taurus) (UniProt P06526). The assay can be described thus: Inhibition of calf terminal deoxynucleotidyl transferase.
The target of another assay is DNA polymerase beta (Rattus norvegicus, UniProt P06766). The assay is described as follows: Inhibition of rat DNA polymerase beta.
The target in assay [7] is T1, DNA polymerase subunit gamma-1 (Homo sapiens) (UniProt P54098).
T1 sequence (whole entry): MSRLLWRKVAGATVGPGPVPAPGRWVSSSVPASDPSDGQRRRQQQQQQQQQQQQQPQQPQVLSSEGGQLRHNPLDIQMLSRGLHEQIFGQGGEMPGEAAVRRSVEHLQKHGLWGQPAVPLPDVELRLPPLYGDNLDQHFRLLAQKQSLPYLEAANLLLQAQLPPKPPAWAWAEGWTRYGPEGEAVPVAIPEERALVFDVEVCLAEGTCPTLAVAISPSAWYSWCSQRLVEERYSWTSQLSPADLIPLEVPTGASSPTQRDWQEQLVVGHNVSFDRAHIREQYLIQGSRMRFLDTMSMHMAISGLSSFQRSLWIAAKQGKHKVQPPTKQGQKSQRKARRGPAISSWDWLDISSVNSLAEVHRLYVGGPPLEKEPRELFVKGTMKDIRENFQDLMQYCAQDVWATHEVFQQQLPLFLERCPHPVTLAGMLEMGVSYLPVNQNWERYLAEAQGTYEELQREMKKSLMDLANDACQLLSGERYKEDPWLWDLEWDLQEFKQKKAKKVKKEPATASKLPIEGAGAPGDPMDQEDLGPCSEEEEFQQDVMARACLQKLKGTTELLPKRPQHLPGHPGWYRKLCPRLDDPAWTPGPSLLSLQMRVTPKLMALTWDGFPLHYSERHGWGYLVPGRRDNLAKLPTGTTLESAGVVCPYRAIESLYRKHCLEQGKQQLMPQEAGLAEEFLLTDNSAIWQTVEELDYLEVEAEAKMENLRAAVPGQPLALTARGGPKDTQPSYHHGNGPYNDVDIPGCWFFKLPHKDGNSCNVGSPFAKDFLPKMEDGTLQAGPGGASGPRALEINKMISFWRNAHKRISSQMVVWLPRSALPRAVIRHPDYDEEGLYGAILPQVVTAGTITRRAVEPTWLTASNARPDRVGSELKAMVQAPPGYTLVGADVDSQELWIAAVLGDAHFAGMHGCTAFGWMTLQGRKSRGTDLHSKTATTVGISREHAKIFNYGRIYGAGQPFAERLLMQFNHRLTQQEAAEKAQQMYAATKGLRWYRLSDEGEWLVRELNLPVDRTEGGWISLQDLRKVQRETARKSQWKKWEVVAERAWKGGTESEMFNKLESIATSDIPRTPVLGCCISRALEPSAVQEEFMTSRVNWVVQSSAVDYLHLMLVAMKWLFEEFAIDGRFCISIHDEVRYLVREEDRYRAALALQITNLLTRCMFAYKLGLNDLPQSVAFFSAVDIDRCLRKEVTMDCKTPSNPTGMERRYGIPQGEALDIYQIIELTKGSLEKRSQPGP
The assay is described as follows: Inhibition of human DNA polymerase gamma at 100 uM.

Assay [8] deals with DNA topoisomerase 2-alpha (Homo sapiens) (UniProt P11388). The assay can be described thus: Inhibition of human DNA topoisomerase 2 at 100 uM relative to control.
Assay [9] addresses Inosine-5'-monophosphate dehydrogenase 2 (Mus musculus) (UniProt P24547). The assay is described as follows: Inhibition of mouse IMP dehydrogenase 2 at 100 uM relative to control.
The target in assay [10] is T2, DNA polymerase subunit gamma-1 (Homo sapiens, UniProt P54098).
T2 sequence (P54098 whole entry): T1 sequence (whole entry)
The assay can be described thus: Inhibition of human DNA polymerase gamma.

Assay [11] has as its target T3, DNA topoisomerase 1 (Homo sapiens) (UniProt P11387).
T3 sequence (whole entry): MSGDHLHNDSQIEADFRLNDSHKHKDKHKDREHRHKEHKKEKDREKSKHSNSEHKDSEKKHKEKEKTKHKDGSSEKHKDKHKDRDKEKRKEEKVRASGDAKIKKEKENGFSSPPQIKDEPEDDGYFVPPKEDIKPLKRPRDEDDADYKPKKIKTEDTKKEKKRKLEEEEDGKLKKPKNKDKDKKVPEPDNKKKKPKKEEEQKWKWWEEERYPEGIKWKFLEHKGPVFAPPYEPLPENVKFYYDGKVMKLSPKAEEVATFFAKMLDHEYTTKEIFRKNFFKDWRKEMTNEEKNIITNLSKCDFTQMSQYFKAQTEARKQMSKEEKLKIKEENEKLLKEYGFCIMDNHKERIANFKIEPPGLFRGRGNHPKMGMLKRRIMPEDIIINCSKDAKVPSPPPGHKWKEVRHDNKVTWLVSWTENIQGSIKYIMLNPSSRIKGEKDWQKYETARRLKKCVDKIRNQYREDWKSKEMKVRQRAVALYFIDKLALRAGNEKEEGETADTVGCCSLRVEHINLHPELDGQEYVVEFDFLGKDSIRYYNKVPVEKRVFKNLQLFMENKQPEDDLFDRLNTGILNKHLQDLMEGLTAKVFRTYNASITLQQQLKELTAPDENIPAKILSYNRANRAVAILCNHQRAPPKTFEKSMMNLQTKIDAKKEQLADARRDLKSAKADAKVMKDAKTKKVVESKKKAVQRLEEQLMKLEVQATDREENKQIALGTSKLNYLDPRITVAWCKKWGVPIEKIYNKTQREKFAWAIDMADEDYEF
The assay can be described thus: Inhibition of human DNA topoisomerase 1 at 100 uM relative to control.

pIC50: −log10 of the molar value. Activity calls are given as the source filed them. The rule behind the calls is not given here.

Sequence of Polynucleotide kinase (Enterobacteria phage T4) (P06855 whole entry): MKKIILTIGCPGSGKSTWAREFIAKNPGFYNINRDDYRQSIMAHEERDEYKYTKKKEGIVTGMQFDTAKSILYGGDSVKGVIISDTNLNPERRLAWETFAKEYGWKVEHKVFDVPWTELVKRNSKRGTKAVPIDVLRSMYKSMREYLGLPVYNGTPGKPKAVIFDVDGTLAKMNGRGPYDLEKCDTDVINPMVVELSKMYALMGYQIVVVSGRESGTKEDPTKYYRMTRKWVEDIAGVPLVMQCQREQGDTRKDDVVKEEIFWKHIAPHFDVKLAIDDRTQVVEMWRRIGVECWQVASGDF
Sequence of Deoxyribonuclease-1 (Bos taurus) (P00639 whole entry): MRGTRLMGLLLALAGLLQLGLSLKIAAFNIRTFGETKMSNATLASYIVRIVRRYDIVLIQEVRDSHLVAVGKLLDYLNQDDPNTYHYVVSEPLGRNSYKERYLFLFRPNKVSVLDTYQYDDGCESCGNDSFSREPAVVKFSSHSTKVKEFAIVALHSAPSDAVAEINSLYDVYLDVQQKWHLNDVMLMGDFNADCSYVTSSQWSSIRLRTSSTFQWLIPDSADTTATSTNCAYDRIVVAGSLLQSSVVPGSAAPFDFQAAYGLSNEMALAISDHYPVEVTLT
Sequence of DNA nucleotidylexotransferase (Bos taurus) (P06526 whole entry): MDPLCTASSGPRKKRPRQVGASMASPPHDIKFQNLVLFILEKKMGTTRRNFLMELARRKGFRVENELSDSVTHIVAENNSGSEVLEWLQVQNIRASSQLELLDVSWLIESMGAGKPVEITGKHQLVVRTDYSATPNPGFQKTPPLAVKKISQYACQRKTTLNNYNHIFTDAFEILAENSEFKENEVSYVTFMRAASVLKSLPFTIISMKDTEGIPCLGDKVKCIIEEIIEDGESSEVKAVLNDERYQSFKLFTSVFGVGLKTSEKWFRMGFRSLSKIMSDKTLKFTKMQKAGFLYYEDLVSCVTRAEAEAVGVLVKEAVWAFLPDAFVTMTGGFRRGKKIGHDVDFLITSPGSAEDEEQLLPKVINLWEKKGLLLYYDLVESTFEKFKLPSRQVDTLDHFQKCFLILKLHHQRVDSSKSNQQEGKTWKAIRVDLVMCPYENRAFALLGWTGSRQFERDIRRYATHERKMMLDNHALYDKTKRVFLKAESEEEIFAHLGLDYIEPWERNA
Sequence of Telomerase reverse transcriptase (Homo sapiens) (O14746 whole entry): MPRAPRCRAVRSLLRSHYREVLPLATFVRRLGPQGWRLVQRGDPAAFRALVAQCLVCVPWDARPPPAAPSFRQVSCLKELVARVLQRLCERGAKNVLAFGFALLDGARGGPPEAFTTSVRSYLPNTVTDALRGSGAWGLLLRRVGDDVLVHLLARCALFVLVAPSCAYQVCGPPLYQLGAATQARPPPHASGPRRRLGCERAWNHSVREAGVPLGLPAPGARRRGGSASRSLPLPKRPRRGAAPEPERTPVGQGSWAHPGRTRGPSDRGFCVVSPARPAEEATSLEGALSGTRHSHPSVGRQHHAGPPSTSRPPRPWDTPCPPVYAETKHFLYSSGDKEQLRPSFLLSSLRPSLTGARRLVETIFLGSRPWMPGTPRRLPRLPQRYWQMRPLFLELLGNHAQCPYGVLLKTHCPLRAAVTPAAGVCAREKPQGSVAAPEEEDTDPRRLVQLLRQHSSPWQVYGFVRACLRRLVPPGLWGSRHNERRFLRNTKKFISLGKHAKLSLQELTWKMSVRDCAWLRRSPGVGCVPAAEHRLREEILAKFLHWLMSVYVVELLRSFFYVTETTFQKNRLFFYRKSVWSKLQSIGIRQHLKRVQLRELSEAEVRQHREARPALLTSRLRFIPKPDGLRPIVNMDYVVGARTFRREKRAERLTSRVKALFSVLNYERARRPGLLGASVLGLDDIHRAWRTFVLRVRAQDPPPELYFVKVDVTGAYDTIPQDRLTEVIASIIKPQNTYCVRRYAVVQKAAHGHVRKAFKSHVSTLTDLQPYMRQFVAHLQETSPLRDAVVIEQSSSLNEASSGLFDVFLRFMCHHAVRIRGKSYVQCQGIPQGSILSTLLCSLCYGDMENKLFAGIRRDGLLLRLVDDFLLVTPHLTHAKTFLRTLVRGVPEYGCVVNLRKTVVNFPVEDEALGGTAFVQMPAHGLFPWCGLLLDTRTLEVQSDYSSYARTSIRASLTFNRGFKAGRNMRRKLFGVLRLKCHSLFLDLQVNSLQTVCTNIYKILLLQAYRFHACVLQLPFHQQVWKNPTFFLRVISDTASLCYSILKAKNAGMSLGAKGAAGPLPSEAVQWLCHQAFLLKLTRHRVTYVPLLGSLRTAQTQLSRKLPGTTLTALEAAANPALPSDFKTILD
Sequence of DNA topoisomerase 2-alpha (Homo sapiens) (P11388 whole entry): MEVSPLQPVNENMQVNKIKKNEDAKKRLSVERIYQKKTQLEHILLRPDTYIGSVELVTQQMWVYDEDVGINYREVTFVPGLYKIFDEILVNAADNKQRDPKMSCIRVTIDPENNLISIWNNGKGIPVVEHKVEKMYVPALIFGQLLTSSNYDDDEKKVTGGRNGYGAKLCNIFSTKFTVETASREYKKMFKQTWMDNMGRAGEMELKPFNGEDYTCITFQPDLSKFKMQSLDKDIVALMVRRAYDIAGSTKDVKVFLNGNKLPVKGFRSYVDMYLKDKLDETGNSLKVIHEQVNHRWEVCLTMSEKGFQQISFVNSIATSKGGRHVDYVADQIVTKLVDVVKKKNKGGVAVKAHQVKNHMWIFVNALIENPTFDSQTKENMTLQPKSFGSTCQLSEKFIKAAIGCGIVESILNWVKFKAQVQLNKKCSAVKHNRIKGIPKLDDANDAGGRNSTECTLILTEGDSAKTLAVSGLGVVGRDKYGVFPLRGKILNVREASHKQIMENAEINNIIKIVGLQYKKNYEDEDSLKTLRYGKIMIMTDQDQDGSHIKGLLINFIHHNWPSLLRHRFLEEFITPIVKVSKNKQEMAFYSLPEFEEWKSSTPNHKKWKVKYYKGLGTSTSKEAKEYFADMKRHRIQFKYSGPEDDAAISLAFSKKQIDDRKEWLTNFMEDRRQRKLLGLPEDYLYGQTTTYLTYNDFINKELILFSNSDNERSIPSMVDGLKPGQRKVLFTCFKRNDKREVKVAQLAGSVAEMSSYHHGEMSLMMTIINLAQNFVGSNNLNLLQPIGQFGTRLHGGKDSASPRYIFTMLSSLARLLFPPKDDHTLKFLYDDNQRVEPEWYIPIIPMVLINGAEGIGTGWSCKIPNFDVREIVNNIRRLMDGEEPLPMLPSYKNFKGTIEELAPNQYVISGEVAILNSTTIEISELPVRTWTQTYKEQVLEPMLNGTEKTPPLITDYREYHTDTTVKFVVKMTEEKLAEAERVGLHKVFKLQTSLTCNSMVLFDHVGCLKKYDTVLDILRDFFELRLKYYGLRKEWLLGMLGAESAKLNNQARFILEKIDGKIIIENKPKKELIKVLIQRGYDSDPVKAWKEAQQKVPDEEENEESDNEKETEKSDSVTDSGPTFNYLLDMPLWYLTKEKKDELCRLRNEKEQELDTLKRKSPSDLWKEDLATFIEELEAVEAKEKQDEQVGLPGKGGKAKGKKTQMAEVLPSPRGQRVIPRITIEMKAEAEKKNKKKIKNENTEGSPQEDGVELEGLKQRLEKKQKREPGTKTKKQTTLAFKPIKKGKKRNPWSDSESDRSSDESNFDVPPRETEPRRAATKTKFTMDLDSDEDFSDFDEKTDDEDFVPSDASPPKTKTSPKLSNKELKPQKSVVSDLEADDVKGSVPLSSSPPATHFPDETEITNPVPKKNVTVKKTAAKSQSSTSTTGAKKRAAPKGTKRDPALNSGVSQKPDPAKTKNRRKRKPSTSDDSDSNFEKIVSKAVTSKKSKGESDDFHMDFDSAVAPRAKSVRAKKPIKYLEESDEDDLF
Sequence of Inosine-5'-monophosphate dehydrogenase 2 (Mus musculus) (P24547 whole entry, looked up): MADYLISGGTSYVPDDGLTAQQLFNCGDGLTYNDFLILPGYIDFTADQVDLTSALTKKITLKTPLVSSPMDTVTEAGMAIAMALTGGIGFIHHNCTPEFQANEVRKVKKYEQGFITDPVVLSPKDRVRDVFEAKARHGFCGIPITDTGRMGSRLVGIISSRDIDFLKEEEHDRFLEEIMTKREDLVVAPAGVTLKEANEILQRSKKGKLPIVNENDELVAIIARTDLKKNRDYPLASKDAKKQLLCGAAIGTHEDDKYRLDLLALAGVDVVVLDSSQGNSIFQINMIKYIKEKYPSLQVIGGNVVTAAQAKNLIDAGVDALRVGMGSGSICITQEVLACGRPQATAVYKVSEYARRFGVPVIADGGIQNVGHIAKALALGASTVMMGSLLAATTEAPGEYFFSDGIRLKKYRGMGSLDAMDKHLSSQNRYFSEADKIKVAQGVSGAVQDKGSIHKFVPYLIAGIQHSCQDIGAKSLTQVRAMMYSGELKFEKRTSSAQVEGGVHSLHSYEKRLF

Turning to `COc1cc(C)c(C(=O)O[C@H]2CC3=C(COC(/C=C/CO)=C3)C(=O)[C@@]2(C)O)c(O)c1` [KASANOSIN A], the result (in assay [1]; in the assay with Oncorhynchus masou; in [2]; in the assay with Brassica oleracea; in assay [3]; in assay [4]) was inactive. The outcome (in the assay with Tequatrovirus T4; in the assay on Escherichia phage T7; with Thermus aquaticus; in the assay filed under Bos taurus; in the assay with Escherichia coli; in [6]) was inactive. Further, the result in [8], in [9] and in assay [11] was inactive. In addition, the outcome in assay [5] and in assay [7] was Active. Also, the pIC50 at DNA polymerase beta was 4.56; in assay [10] it was 4.46.

Turning to `COc1cc(C)c(C(=O)O[C@]2(C)C(=O)C3=C(C=C(/C=C/CO)OC3)C[C@@H]2O)c(O)c1` [KASANOSIN B], the outcome (in assay [1]; with Oncorhynchus masou; in [2]; in the assay with Brassica oleracea; in assay [3]; in assay [4]) was inactive. The result (with Tequatrovirus T4; with Escherichia phage T7; in the assay with Thermus aquaticus; in the assay filed under Bos taurus; in the assay on Escherichia coli; in assay [6]) was inactive. The outcome in assay [8], in [9] and in assay [11] was inactive. In addition, the result in assay [5] and in assay [7] was Active. Besides, the pIC50 at DNA polymerase beta is 4.22; in assay [10] it was 4.14.

Broadly, the pIC50 is the IC50 on a negative log10 scale, so that one unit is a factor of ten. Higher therefore signals a low IC50.
